Source: US7989466B2, “Methods to inhibit or augment an inflammatory response” (Cambridge Enterprise Limited, priority 1999, dated 2011)
Values after ≈ are worked out from the molar mass of the structure shown. Positions of bridges follow the written chain, without caps; N, C: chain ends. Non-standard residues stand in square brackets, D forms with d. Residues, ends and D or L forms follow the SMILES beside them. No end group written: not given here.

Key:
[1] = Acute and 7-day repeat dose rat toxicity; assay type: in vivo; settings: 1 or 10 mg (5-50 mg/kg) i.v.
Text: That is, all animals remained clinically normal throughout.

[2] = Competition of 125I-MCP-1 binding to heparin-coated agarose beads; settings: 10^−11 to 10^−4 M
Text: Chemokines bind to glycosaminoglycans on the cell surface, which may facilitate chemokine receptor binding and subsequent signaling. […] This was followed by a monophasic displacement curve at concentrations of approximately 10^−7 to 10^−5 M MCP-1.

[3] = tested on: fMLP induced THP-1 migration; assay: THP-1 chemotaxis assay, fMLP as chemoattractant; assay type: cell-based; settings: Homo sapiens, fMLP is not a chemokine, read-out: ED50, fMLP chemotaxis assay
Description: To determine whether an agent inhibits a chemokine-induced activity, such as macrophage recruitment, varying amounts of the agent are mixed with cells in the presence of a known chemoattractant. For example, a range of known concentrations of an agent, e.g., a chemokine peptide, is incubated with a defined number (e.g., 10^4-10^6) of human THP-1 monocyte cells in individual wells of the top compartment of a trans-well plate. Chemokine (such as MCP-1, MIP1α, IL8 or SDF-1α), at a concentration known to cause significant migration of THP-1 cells in the trans-well migration assay, is placed in the lower compartment (FIG. 1). Cells are then incubated at 37° C. for a period sufficient to allow migration, e.g., 4 hours. After incubation, the cells are gently removed from the top of the filter with a pipette, 20 μl of 20 mM EDTA in simple PBS is added into each top well, and incubated for 20 minutes at 4° C. The filter is carefully flushed with media using a gentle flow, and removed. A standard curve consisting of a two-fold dilution series of THP-1 cells (in 29 μl) is prepared to accurately quantify the number of cells that have migrated. […] Absorbance of converted dye is measured at a wavelength of 595 nm using an ELISA plate reader. The number of migrated cells in each well is then determined by interpolation of the standard curve (see also Imai et al., J. Biol. Chem., 272, 15036 (1997)). […]

[4] = tested on: MCP-1 co-mitogenic effect, cultured smooth muscle cells; assay: Co-mitogenic effect of MCP-1 on cultured smooth muscle cells; assay type: cell-based; settings: 100 μM; MCP-1 with 0.5% fetal calf serum
Description: Many chemokines are co-mitogenic with low concentrations of FCS, e.g., 50 ng/ml MCP-1+0.5% FCS is a mitogen for smooth muscle cells. Assays well known to the art for determination of DNA synthesis induced by any known chemokine plus a low concentration (<5%) of FCS on suitable cells (e.g., smooth muscle cells) in the presence and absence of the agent may be employed to screen agents for such inhibitory activity. See Porreca et al., J. Vasc. Res., 34, 58 (1997), the disclosure of which is incorporated by reference herein.
Peptide 3(1-12)[MCP-1] […] MCP-1 has been reported to be a weak co-mitogen with 0.5% fetal calf serum for cultured smooth muscle cells. […] (SEQ ID NO:1) is an MCP-1 receptor antagonist. The observation that peptide 3(1-12)[MCP-1]

[5] = tested on: chemokine receptors on the surface of Jurkat cells; assay: Binding to chemokine receptors on Jurkat cells; set-up: species or system human
Description: For Scatchard analysis, the absorbance readings at 450 nm were calibrated, by reference to a standard curve in which known amounts of labeled peptide were coupled to derivatized sepharose beads (activated thiol-sepharose 4B; Sigma T8512) via the cysteine residue in each peptide. Briefly, known amounts (1 fmol to 1 pmol) of biotin-labeled peptide were incubated with 1 mg of activated thiol-sepharose beads in 100 μl of PBS at 37° C. for 1 hour. Free activated thiols were then blocked by addition of cysteine to a final concentration of 10 mM. The peptide-conjugated beads were then washed 5 times in PBS and treated exactly as for the cells described above. The absorbance at 450 nm obtained when a known amount of peptide was coupled to the beads was used to construct a standard curve which was used to convert the absorbance readings obtained with cells into number of molecules of labeled peptide which had bound.

## CC[C@@H](C)[C@H]1NC(=O)[C@@H](CCC(N)=O)NC(=O)[C@H](N)CSSC[C@H](C(N)=O)NC(=O)[C@@H](CC(C)C)NC(=O)[C@@H](CC(=O)O)NC(=O)[C@H]2CCCN2C(=O)[C@@H](CCCCN)NC(=O)[C@@H](CCC(N)=O)NC(=O)[C@@H](CCCCN)NC(=O)[C@@H](Cc2c[nH]c3ccccc23)NC1=O (H-[dC][dQ][dI][dW][dK][dQ][dK][dP][dD][dL][dC]-NH2; disulfide 1-11; N-terminus assumed)
[1]
  acute rat toxicity, clinical findings: no clinically detectable changes
[2]
  displacement of 125I-MCP-1 from heparin-coated agarose beads: did not result in displacement

## C=CCCCCCCCCC(=O)N[C@H]1CCC(=O)NC1=O [A-I (NR58.4), [3S]-3-(undec-10-enoylamino)piperidine-2,6-dione]
[3]
  EC50: > 100 µM
physchem
  pKa: ~11
physchem; organic solvent or mixture
  solubility: > 200000 µg/mL
physchem; pH 11, water
  solubility: 5000 µg/mL (≈ 17 mM)

## EICADPKQKWVQ [peptide 3(1-12)[MCP-1]]
[4]
  effect on the co-mitogenic effect of MCP-1 for cultured smooth muscle cells: completely abolished

## SYRRITSSKCPKEAV [peptide 2(1-15)[MCP-1]]
[5]
  B, binding sites on Jurkat cells: 55,000 sites/cell
  Ka, chemokine receptors on the surface of Jurkat cells: 250 nM
